Measured values: patent US11897862B2 (Gilead Sciences, Inc., priority 2022, dated 2024)

Key:
IKZF1 = biological target: T1, IKZF1 (Homo sapiens, UniProt Q13422+Q96SW2); assay: HEK293 HiBiT in vitro degradation of IKZF1; assay type: cell-based; settings: for Dmax: HEK293, HEK293 HiBiT; for DC50: 18-24 hr incubation, normalized to DMSO control, read-out: IKZF1 EC50
T1 construct: expressed in transfected cells
Experimental: (§1) In vitro degradation of IKZF1, IKZF2, and SALL4 was measured using HiBiT protein tagging and detection technology (Promega).
(§2) HiBit technology was used to develop the quantitative assays to measure the cellular IKZFs level by tagging an 11 amino acid HiBit peptides […] to the protein of interest. Reporter plasmids were generated by fusing a linker sequence ([…]) followed by the HiBit tag at the C-terminus of IKZF1, IKZF2, and SALL4. The fusion fragments were subsequently cloned into pcDNA5 pcDNA™5/FRT/TO plasmids (Thermo Fisher, cat #V652020) downstream of the tetracycline operator. The resulting plasmids were co-transfected with pOG44 Flp-Recombinase Expression Vector (Thermo Fisher, cat #V600520) into Flp-In™ T-REx HEK293 line (Thermo Fisher, cat #R78077) and a stable cell pool was selected by adding 100 µg/ml of Hygromycin (Thermo Fisher, cat #10687010). The reporter cell enabled Tet-On inducible reporter expression from a single copy of the integrated gene.
(§3) On Day 1, Cells were grown to ˜80% confluency in tissue culture medium (DMEM Glutamax (Gibco10569), 10% Tet free FBS (Takara 631106), and PenStrep Glutamin (Gibco 10378)) in tissue culture flasks. Doxycycline was then added to a final concentration of […] to induce reporter expression at 37° C. overnight.
(§4) On Day 2, 125 nL of serially-diluted solution of testing compounds were dispensed into 384-well white solid assay plates via ECHO acoustic liquid handler. Cells were lifted by 0.25% Trypsin (Gibco 25200) then pelleted by centrifugation (Beckman Avanti J-E) at 500×g for 5 min. Cell pellets were resuspended in TC medium at the concentration of 3e5/mL and 25 μL of cell suspension were added into each well of compound-spotted plates. The plates were returned to a 37° C. incubator overnight (18-24 hr).
(§5) On Day 3, assay plates were removed from the tissue culture incubator and 25 μL of Nano-Glo lytic detection system (Promega, cat #N3030) was added to each well. Plates were incubated at r.t. for 3 min with shaking, and luminescence was read using an Envision reader (Perkin Elmer).
(§6) To assess the IKZF1, IKZF2, and SALL4 degrader potential of exemplified compounds of this disclosure and certain Reference Compounds EC50 and Dmax values were determined for the compounds of Examples 1 to 383 and Reference Compounds A-1, B-1, B-2, B-3, B-4, and C-1 in the HiBiT assays. Asterisks (*) indicate examples for which the data shown represents an average of n≥3.

IKZF2 = IKZF2 (Homo sapiens, UniProt Q96SW2+Q9UKS7); assay: HEK293 HiBiT in vitro degradation of IKZF2; assay type: cell-based; set-up: expressed in transfected cells; settings: for Dmax: HEK293, HEK293 HiBiT; for Dmax / IKZF2 Dmax: maximum degradation at the highest concentration tested; for DC50 / IKZF2 Dmax: HEK293 HiBiT; for DC50: 18-24 hr incubation, normalized to DMSO control, read-out: IKZF2 EC50
Experimental: as §1, §2, §3, §4, §5, §6

[1] = maximum degradation at the highest concentration tested

T1 sequence (Q13422 whole entry): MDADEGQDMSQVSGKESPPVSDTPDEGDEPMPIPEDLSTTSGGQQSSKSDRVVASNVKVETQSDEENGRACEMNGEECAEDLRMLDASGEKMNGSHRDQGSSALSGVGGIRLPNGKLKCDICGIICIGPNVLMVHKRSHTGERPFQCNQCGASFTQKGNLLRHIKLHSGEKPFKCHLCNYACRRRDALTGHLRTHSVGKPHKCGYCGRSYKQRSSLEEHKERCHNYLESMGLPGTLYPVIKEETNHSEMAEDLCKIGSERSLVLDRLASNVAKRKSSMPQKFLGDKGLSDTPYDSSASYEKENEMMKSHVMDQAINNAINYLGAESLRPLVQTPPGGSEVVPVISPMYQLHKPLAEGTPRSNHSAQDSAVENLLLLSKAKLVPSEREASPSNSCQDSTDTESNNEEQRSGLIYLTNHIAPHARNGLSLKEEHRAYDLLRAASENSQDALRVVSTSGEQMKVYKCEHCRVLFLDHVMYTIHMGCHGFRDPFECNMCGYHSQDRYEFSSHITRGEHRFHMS
T1 sequence (Q96SW2 whole entry): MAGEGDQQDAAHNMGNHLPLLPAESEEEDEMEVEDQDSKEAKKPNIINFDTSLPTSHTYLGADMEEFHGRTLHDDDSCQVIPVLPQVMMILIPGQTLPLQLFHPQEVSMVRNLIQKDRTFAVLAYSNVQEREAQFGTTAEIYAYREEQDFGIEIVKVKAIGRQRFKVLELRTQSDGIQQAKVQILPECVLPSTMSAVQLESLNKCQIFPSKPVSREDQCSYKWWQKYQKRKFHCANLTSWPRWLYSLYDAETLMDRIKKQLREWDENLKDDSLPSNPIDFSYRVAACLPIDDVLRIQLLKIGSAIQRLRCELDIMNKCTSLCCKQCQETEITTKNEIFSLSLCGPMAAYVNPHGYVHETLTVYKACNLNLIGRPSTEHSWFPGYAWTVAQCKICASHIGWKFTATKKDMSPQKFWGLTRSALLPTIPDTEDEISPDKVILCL
T1 sequence (Q16531 whole entry partner): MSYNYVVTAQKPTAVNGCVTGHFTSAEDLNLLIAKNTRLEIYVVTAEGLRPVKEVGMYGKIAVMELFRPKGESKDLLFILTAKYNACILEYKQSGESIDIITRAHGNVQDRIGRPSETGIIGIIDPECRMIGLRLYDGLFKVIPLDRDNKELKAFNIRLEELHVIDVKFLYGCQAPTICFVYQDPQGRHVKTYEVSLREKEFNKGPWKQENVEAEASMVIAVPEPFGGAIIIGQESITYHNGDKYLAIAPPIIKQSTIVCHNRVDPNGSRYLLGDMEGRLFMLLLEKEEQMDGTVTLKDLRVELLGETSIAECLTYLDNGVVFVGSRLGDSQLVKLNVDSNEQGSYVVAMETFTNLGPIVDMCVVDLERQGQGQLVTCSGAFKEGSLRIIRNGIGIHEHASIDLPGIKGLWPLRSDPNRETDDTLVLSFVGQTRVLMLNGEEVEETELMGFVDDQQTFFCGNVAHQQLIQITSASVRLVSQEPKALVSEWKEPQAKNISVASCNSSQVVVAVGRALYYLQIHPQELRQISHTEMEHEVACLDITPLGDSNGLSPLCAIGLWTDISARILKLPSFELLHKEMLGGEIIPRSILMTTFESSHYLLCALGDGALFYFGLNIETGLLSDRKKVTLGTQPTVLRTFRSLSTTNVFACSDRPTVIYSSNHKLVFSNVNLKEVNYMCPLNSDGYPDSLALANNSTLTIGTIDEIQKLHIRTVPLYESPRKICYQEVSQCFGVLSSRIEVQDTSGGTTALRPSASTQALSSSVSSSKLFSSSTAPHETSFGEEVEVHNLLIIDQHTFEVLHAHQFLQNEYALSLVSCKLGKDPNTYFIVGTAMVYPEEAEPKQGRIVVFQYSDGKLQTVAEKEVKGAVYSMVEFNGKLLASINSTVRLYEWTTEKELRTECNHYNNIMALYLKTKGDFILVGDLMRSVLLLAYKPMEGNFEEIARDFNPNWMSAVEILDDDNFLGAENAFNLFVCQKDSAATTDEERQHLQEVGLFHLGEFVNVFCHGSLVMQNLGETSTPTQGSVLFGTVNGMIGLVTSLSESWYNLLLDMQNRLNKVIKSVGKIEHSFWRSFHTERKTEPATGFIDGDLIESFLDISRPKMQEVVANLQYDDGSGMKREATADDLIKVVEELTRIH
IKZF2, sequence (Q9UKS7 1-500 isoform Q9UKS7-2): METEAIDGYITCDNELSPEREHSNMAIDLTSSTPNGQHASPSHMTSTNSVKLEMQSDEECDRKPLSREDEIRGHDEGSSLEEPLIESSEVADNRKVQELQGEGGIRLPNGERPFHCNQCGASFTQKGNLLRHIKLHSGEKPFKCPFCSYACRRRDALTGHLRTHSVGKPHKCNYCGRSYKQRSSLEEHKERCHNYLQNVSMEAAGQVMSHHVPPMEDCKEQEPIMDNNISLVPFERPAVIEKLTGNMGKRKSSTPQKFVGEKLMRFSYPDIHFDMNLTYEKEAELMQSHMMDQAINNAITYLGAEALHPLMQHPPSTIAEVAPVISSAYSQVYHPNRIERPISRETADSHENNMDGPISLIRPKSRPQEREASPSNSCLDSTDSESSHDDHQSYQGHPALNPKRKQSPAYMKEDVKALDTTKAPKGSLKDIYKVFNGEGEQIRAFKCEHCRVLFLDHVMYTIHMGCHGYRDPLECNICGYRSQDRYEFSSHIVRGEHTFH
IKZF2, sequence (Q96SW2 whole entry): as the sequence (Q96SW2 whole entry) above
IKZF2, sequence (Q16531 whole entry partner): as the sequence (Q16531 whole entry partner) above

Structure (SMILES)	Dmax (IKZF1; [1]) [%]	DC50 (IKZF1; HEK293 HiBiT) [nM]	Dmax (IKZF2) [%]	DC50 (IKZF2) [nM]	IKZF2 Dmax (IKZF2) [%]	IKZF1 Dmax (IKZF1; HEK293 HiBiT, maximum degradation at the highest concentration tested) [%]
CCOCC(C)N[C@H]1CCCC[C@@H]1Cc1ccc2c(c1)CN(C1CCC(=O)NC1=O)C2=O (some centres unmarked) [Example 78]		> 1000	92	16		
O=C1CCC(N2Cc3cc(C[C@H]4CCCC[C@@H]4NCc4c(F)cncc4F)ccc3C2=O)C(=O)N1 (stereo partly drawn) [Example 43, 3-(5-(((1R,2S)-2-(((3,5-difluoropyridin-4-yl)methyl)amino)cyclohexyl)methyl)-1-oxoisoindolin-2-yl)piperidine-2,6-dione]		> 1000	45	91		
C[C@H](N[C@H]1CCCC[C@@H]1Cc1ccc2c(c1)CN(C1CCC(=O)NC1=O)C2=O)c1ccccc1 (stereo partly drawn) [Example 66, 3-(1-oxo-5-(((1R,2S)-2-(((S)-1-phenylethyl)amino)cyclohexyl)methyl)isoindolin-2-yl)piperidine-2,6-dione]		> 1000	89	17		
O=C1CCC(N2Cc3cc(C[C@H]4CCCC[C@@H]4NC4CCc5cn[nH]c5C4)ccc3C2=O)C(=O)N1 (single isomer, unassigned) [Example 359]		249		9	101	43
CC1(C)CCCC(N[C@H]2CCCC[C@@H]2Cc2ccc3c(c2)CN(C2CCC(=O)NC2=O)C3=O)C1 (single isomer, unassigned) [Example 275]		> 1000	96	4		
O=C1CCC(N2Cc3cc(C[C@H]4CCCC[C@@H]4NC4C5CCC4COC5)ccc3C2=O)C(=O)N1 (some centres unmarked) [Example 194]		> 1000	92	20		
CN(Cc1ccccc1)[C@H]1CCCC[C@@H]1Cc1ccc2c(c1)CN(C1CCC(=O)NC1=O)C2=O (stereo partly drawn) [Example 21, 3-(5-(((1R,2S)-2-(benzyl(methyl)amino)cyclohexyl)methyl)-1-oxoisoindolin-2-yl)piperidine-2,6-dione]		> 1000	49	409		
O=C1CCC(N2Cc3cc(C[C@H]4CCC(F)(F)C[C@@H]4NC4CCC(F)(F)CC4)ccc3C2=O)C(=O)N1 (some centres unmarked) [Example 345]	56	174	97	4		
O=C1CCC(N2Cc3cc(C[C@H]4CCCC[C@@H]4NCc4ccccc4)c(F)cc3C2=O)C(=O)N1 (stereo partly drawn) [Example 4, 3-(5-(((1R,2S)-2-(benzylamino)cyclohexyl)methyl)-6-fluoro-1-oxoisoindolin-2-yl)piperidine-2,6-dione]	26	130	92	58		
O=C1CCC(N2Cc3cc(C[C@H]4CCCC[C@@H]4NCc4ccc(C(F)(F)F)cc4)ccc3C2=O)C(=O)N1 (stereo partly drawn) [Example 16, 3-(1-oxo-5-(((1R,2S)-2-((4-(trifluoromethyl)benzyl)amino)cyclohexyl)methyl)isoindolin-2-yl)piperidine-2,6-dione]		> 1000	87	42		

Other lines, results leading:

Dmax (IKZF1; [1]) [%]	DC50 (IKZF1; HEK293 HiBiT) [nM]	Dmax (IKZF2) [%]	DC50 (IKZF2) [nM]	IKZF2 Dmax (IKZF2) [%]	IKZF1 Dmax (IKZF1; HEK293 HiBiT, maximum degradation at the highest concentration tested) [%]	Structure (SMILES)
42	89	92	11			CC(N[C@H]1CC(F)(F)CC[C@@H]1Cc1ccc2c(c1)CN(C1CCC(=O)NC1=O)C2=O)C1CCOCC1 (some centres unmarked) [Example 349]
37	198	98	26			O=C1CCC(N2Cc3cc(C[C@H]4CCCC[C@@H]4NC4CCC5(CCO5)CC4)ccc3C2=O)C(=O)N1 (some centres unmarked) [Example 171]
	> 1000		55	76		CC(N[C@H]1CCCO[C@@H]1Cc1ccc2c(c1F)CN(C1CCC(=O)NC1=O)C2=O)C1CCOCC1 (single isomer, unassigned) [Example 298]
	> 1000	97	4			CC(CC1CC1)N[C@H]1CCCC[C@@H]1Cc1ccc2c(c1)CN(C1CCC(=O)NC1=O)C2=O (some centres unmarked) [Example 204]
	> 1000	72	54			CCC(C)(C)N[C@H]1CCCC[C@@H]1Cc1ccc2c(c1)CN(C1CCC(=O)NC1=O)C2=O (stereo partly drawn) [Example 322, 3-(1-oxo-5-(((1R,2S)-2-(tert-pentylamino)cyclohexyl)methyl)isoindolin-2-yl)piperidine-2,6-dione]
